Experimental data taken from the Kinase Knowledgebase extract (Sharma et al. 2016).

target: EGFR (human) (UniProt P00533)
Sequence (P00533 whole entry, looked up): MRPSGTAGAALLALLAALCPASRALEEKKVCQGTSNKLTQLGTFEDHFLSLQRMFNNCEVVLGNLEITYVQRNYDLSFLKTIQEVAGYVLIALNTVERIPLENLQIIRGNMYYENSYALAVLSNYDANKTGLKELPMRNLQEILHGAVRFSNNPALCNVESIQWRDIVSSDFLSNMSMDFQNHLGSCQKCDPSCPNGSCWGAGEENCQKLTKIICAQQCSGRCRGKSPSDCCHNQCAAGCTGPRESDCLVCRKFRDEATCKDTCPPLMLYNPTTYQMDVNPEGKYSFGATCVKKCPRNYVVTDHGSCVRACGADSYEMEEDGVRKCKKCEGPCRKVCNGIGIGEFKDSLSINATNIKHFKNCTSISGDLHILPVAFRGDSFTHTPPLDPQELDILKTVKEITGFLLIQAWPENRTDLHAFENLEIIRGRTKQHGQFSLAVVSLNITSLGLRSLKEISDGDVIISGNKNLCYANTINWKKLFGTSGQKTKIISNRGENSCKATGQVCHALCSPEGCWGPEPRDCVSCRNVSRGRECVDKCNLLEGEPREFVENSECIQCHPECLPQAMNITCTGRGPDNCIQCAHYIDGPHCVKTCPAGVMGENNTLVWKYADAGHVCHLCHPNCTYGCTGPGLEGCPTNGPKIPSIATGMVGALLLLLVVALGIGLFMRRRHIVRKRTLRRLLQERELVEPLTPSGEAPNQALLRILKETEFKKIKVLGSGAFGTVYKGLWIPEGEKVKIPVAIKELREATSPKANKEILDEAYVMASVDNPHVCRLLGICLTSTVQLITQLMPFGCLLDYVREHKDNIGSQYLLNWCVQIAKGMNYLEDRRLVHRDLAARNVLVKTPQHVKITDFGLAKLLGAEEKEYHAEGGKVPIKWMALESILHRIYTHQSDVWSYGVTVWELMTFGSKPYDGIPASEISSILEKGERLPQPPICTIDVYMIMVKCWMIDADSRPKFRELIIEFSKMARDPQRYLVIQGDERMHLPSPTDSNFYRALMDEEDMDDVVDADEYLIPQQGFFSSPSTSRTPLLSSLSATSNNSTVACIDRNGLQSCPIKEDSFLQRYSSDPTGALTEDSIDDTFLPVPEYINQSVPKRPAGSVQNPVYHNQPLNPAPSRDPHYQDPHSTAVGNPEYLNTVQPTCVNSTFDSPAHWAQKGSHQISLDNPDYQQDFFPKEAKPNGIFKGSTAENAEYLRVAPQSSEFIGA

IC50, > 20 µM:
COc1cccc(-c2cccc3c2/C(=C/c2[nH]c(C)c(C(=O)NCCn4ccnn4)c2C)C(=O)N3)c1, COc1ccc(-c2cccc3c2/C(=C/c2[nH]c(C)c(C(=O)N4C[C@@H](C)N[C@@H](C)C4)c2C)C(=O)N3)cc1, Cc1[nH]c(/C=C2\C(=O)Nc3cccc(-c4ccc(Cl)cc4)c32)c(C)c1C(=O)N1CCN(C)CC1, Cc1cc(C(=O)N2CC[C@H](N(C)C)C2)c(/C=C2\C(=O)Nc3cccc(-c4cccc(Cl)c4)c32)[nH]1, Cc1cc(C(=O)NCCN2CCCC2)c(/C=C2\C(=O)Nc3cccc(-c4ccc(Br)cc4)c32)[nH]1, CCN(CC)CCNC(=O)c1c(C)[nH]c(/C=C2\C(=O)Nc3cccc(-c4cccc(OC)c4)c32)c1C, COc1ccc(-c2cccc3c2/C(=C/c2[nH]c(C)cc2C(=O)NCCN2CCCC2)C(=O)N3)cc1, Cc1[nH]c(/C=C2\C(=O)Nc3cccc(-c4cccc(F)c4)c32)c(C)c1C(=O)NCCn1ccnn1, Cc1[nH]c(/C=C2\C(=O)Nc3cccc(-c4ccc(F)cc4)c32)c(C)c1C(=O)N1CCN(C)CC1, Cc1[nH]c(/C=C2\C(=O)Nc3cccc(-c4cccc(C(F)(F)F)c4)c32)c(C)c1C(=O)N1CCN(C)CC1, Cc1cc(C(=O)N2CC[C@H](N(C)C)C2)c(/C=C2\C(=O)Nc3cccc(-c4ccc(F)cc4)c32)[nH]1, Cc1[nH]c(/C=C2\C(=O)Nc3cccc(-c4ccccc4F)c32)c(C)c1C(=O)N1CCN(C)CC1, Cc1[nH]c(/C=C2\C(=O)Nc3cccc(-c4ccc(Br)cc4)c32)c(C)c1C(=O)N1C[C@@H](C)N[C@@H](C)C1, Cc1cc(C(=O)NCCn2ccnn2)c(/C=C2\C(=O)Nc3cccc(-c4ccccc4F)c32)[nH]1, Cc1cc(C(=O)N2C[C@@H](C)N[C@@H](C)C2)c(/C=C2\C(=O)Nc3cccc(-c4cccc(Cl)c4)c32)[nH]1, Cc1[nH]c(/C=C2\C(=O)Nc3cccc(-c4ccc(Br)cc4)c32)c(C)c1C(=O)N1CCN(C)CC1, Cc1cc(C(=O)N2C[C@@H](C)N[C@@H](C)C2)c(/C=C2\C(=O)Nc3cccc(-c4ccc(Cl)cc4)c32)[nH]1, COc1cccc(-c2cccc3c2/C(=C/c2[nH]c(C)c(C(=O)NCCN(C(C)C)C(C)C)c2C)C(=O)N3)c1, Cc1cc(C(=O)NCCn2ccnn2)c(/C=C2\C(=O)Nc3cccc(-c4cccc(Cl)c4)c32)[nH]1, Cc1cc(C(=O)NCCN2CCCC2)c(/C=C2\C(=O)Nc3cccc(-c4ccc(F)c(Cl)c4)c32)[nH]1, CCN(CC)CCNC(=O)c1c[nH]c(/C=C2\C(=O)Nc3cccc(-c4ccc(Br)cc4)c32)c1C, CCN(CC)CCNC(=O)c1c(C)[nH]c(/C=C2\C(=O)Nc3cccc(-c4ccc(OC(F)(F)F)cc4)c32)c1C, Cc1cc(C(=O)N2CC[C@@H](N(C)C)C2)c(/C=C2\C(=O)Nc3cccc(-c4ccc(Cl)cc4)c32)[nH]1, CCN(CC)CCNC(=O)c1c(C)[nH]c(/C=C2\C(=O)Nc3cccc(-c4ccccc4)c32)c1C
